The assay concerns the target Src (Homo sapiens, UniProt P12931). The assay is described as follows: Src kinase inhibition (IC50). In kind it is biochemical. The text has this: Other assays are known from the literature and could readily be performed by the person skilled in the art (see, for example, Dhanabal et al., Cancer Res. 59:189-197; Xin et al., J. Biol. Chem. 274:9116-9121; Sheu et al., Anticancer Res. 18:4435-4441; Ausprunk et al., Dev. Biol. 38:237-248; Gimbrone et al., J. Natl. Cancer Inst. 52:413-427; Nicosia et al., In Vitro 18:538-549).
Src, sequence (P12931 whole entry, species assumed): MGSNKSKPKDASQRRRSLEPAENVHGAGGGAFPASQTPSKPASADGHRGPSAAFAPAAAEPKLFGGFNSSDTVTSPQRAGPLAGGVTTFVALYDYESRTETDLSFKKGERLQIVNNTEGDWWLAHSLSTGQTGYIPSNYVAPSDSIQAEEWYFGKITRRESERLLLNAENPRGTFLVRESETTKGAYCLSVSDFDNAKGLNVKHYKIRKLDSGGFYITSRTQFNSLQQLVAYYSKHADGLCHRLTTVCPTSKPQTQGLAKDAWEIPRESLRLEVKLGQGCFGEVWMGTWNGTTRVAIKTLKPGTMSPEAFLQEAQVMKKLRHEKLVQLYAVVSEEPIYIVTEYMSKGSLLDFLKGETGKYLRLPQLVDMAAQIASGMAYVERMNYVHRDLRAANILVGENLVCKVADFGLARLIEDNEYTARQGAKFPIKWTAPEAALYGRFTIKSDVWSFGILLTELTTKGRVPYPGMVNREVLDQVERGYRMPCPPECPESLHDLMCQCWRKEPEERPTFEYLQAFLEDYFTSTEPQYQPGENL
`O=C(C1CCCCC1)N1CCc2[nH]c3nccc(Nc4c(Cl)ccc5c4OCO5)c3c2C1` [Example 71, [4-(5-Chloro-benzo[1,3]-dioxol-4-ylamino)-5,7,8,9-tetrahydro-dipyrido[2,3-b;3′,4′-d]pyrrol-6-yl]-cyclohexyl-methanone] came in with an IC50 of 101 to 1000 nM.

In turn, `O=C(C1CCC1)N1CCc2[nH]c3nccc(Nc4c(Cl)ccc5c4OCO5)c3c2C1` [Example 69, [4-(5-Chloro-benzo[1,3]-dioxol-4-ylamino)-5,7,8,9-tetrahydro-dipyrido[2,3-b;3′,4′-d]pyrrol-6-yl]-cyclobutyl-methanone] registered an IC50 of 101 to 1000 nM.

Regarding `O=C(C1CCCC1)N1CCc2[nH]c3nccc(Nc4c(Cl)ccc5c4OCO5)c3c2C1` [Example 70, [4-(5-Chloro-benzo[1,3]-dioxol-4-ylamino)-5,7,8,9-tetrahydro-dipyrido[2,3-b;3′,4′-d]pyrrol-6-yl]-cyclopentyl-methanone], the IC50 was in the range of 101 to 1000 nM.

For the molecule `CC(=O)N1CCc2[nH]c3nccc(Nc4c(Cl)ccc5c4OCO5)c3c2C1` [Example 15, 1-[4-(5-Chloro-benzo[1,3]dioxol-4-ylamino)-5,7,8,9-tetrahydro-dipyrido[2,3-b;3′,4′-d]pyrrol-6-yl]-ethanone], the half-inhibitory concentration (IC50) is 11 to 100 nM.

Take `O=C(c1ccccc1)N1CCc2[nH]c3nccc(Nc4c(Cl)ccc5c4OCO5)c3c2C1` [Example 67, [4-(5-Chloro-benzo[1,3]-dioxol-4-ylamino)-5,7,8,9-tetrahydro-dipyrido[2,3-b;3′,4′-d]pyrrol-6-yl]-phenyl-methanone]: the IC50 lay within 101 to 1000 nM.

For `O=C(C1CC1)N1CCc2[nH]c3nccc(Nc4c(Cl)ccc5c4OCO5)c3c2C1` [Example 68, [4-(5-Chloro-benzo[1,3]-dioxol-4-ylamino)-5,7,8,9-tetrahydro-dipyrido[2,3-b;3′,4′-d]pyrrol-6-yl]-cyclopropyl-methanone], the concentration for half-maximal inhibition (IC50) lay within 101 to 1000 nM.

The term IC50 denotes the concentration needed to halve the response being measured. Read a low IC50 as higher potency.
